Measurements as given in paper PMC6152024 (Molecules : A Journal of Synthetic Chemistry and Natural …, 2017).

Experiments:
rat hepatic CYP3A = experiment: Effect of Gom A pretreatment on rat hepatic CYP3A activity (liver microsomes from pretreated rats); format: in vivo; conditions: RLMs; for DCCTX production decrease compared with control group: CTX 100 ng/mL; for rat hepatic CYP3A activity, % of the control group activity: Tes 25 µM
Description: Rats were randomly divided into four groups (control group; pretreatment groups: 0.5 h group, 6 h group, 12 h group). Rats in control group and pretreatment groups were administrated (i.g.) with saline (2 mL/kg) and Gom A (20.8 mg/kg) respectively. In control group, rats were anesthetized 0.5 h after administration. In pretreatment groups, rats were anesthetized 0.5 h, 6 h, 12 h after Gom A pretreatment respectively. After anesthesia, the rat livers were infused with cool saline. After infusion, rats were euthanized and livers were collected. The liver microsomes were prepared using calcium precipitation method. Briefly, livers were weighted, washed with cool PBS (0.1 M), and then homogenized in cool Tris-PBS (50 mM Tris, w/v = 1:4). The mixture was centrifuged at 14,000 g for 20 min at 4 °C. The supernatant was mixed with CaCl2 solution (88 mM, vsupernantant/vCaCl2 = 10:1) and then centrifuged at 14,000 g for 20 min at 4 °C. The precipitate was resuspended in Tris-PBS and centrifuged (14,000 g, 4 °C, 20 min). Finally, the precipitate was resuspended in PBS containing 250 mM glucose, giving a concentration of 5 mg protein/mL. The prepared microsomes were stored at −80 °C until use.
To determine the effect of Gom A pretreatment on rat hepatic CYP3A activity, liver microsomes from control and pretreatment groups were incubated with Tes (25 µM) and CTX (100 ng/mL) respectively. The incubation procedures were similar with Section 4.3.1 and Section 4.3.4 for Tes and CTX incubation, respectively. For incubations using Tes, 0.5 mg/mL RLMs was incubated with 25 µM Tes in PBS (0.1 M) containing NADPH-gs at 37 °C in a total volume of 200 µL. After a 5 min warm up period, reactions were initiated with addition of NADPH-gs. Incubations were conducted at 37 °C for 10 min and then terminated by the addition of 200 µL ice-cold acetonitrile containing 18 ng/mL phenacetin (IS-I). For incubations using CTX, 0.5 mg/mL RLMs was incubated with 100 ng/mL CTX in PBS (0.1 M) containing NADPH-gs at 37 °C in a total volume of 200 µL. After a 5 min warm up period, reactions were initiated with addition of NADPH-gs. Incubations were conducted at 37 °C for 60 min and then terminated by the addition of 200 µL ice-cold acetonitrile containing 6 ng/mL of TNZ (IS-II).
After reaction termination, concentration of 6OH-Tes and DCCTX were determined.

CYP3A [1] = molecular target: T1, CYP3A (Homo sapiens, UniProt P08684); experiment: Effect on DCCTX production from CTX in HLMs; format: in vitro ADME; conditions: 10 µM inhibitor, HLMs 0.5 mg/mL, CTX substrate; 60 min
T1 sequence (P08684 2-503): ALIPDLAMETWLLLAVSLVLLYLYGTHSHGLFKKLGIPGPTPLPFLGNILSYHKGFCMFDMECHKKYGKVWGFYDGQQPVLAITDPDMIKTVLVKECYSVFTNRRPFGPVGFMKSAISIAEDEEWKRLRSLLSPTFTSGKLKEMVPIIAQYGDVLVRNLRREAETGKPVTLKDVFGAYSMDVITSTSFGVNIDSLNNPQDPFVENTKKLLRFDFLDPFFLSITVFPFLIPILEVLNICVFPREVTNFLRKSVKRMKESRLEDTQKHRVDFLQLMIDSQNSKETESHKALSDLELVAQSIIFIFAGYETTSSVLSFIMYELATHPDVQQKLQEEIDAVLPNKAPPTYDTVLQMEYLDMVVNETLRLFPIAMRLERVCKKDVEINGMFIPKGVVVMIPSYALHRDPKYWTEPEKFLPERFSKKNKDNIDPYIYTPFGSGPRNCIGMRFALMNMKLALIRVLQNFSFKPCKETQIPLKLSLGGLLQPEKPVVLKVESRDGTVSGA
Description: The effect of Gom A on CYP3A metabolism of CTX in HLMs was investigated. […] Considering the difficulty for direct CAA determination, DCCTX was assayed to reflect CAA production using an established UHPLC-MS method (II).
The CYP3A inhibitor ketoconazole (Keto) was used as positive control. Briefly, various concentrations of Gom A and Keto (0.01, 0.1, 1 and 10 µM) were incubated with HLMs (0.5 mg/mL) in PBS (0.1 M) containing NADPH-gs and 100 µM CTX in a total volume of 200 µL. After a 5 min warm up period, reactions were initiated with addition of NADPH-gs. Incubations were conducted at 37 °C for 60 min and then terminated by the addition of 200 µL ice-cold acetonitrile containing 6 ng/mL of TNZ (IS-II).

CYP3A [2] = molecular target: T1, CYP3A; experiment: KI and kinact assay (CYP3A inactivation) in HLMs; format: in vitro ADME; parameters: tissue Meilun Biotechnology Co., Ltd. (Dalian, China) lot No. M0202A; host or cells: pooled (mixed) male human liver microsomes; conditions: preincubation 0-30 min with NADPH-gs, 100 µM Tes
Description: The following steps were similar as described in the IC50 shift assays. […] All the incubations were performed in triplicate.
Pharmacokinetic profiles of CTX and DCCTX were estimated by one-compartmental model using the DAS 2.0 software ([…], Medical College of Wannan, Anhui, China). Data were expressed as mean ± SD. Comparisons between two groups were performed using one-way ANOVA followed by LSD test in the condition of variance homogeneity or Dunnett T3 test in the case of variance heterogeneity. The differences were considered to be statistically significant at * p < 0.05 and ** p < 0.01. IC50 values of Gom A were determined by nonlinear regression analysis using GraphPad Prism 5.01 software (GraphPad Software Inc., San Diego, CA, USA). The mode of inhibition was verified by Lineweaver-Burk plots of the enzyme kinetic data, and the KI value was determined by linear regression analysis with GraphPad Prism 5.01 (GraphPad Software Inc.). The initial inactivation rate constant (kobs, min^−1) was estimated from the initial slope of the linear regression line at each concentration of Gom A. Then the values of kobs were plotted versus Gom A concentration, and the maximal inactivation rate constant kinact, along with the concentration of inactivator (at which the rate of the inactivation is half maiximal) KI values, were determined using Equation (1). […]

[3] = 0.5 h after Gom A 20.8 mg/kg i.g.
[4] = 6 h after Gom A 20.8 mg/kg i.g.
[5] = 12 h after Gom A 20.8 mg/kg i.g.

What does the source list for Gomisin A [Gom A]?
DCCTX production decrease compared with control group (rat hepatic CYP3A; [3]): 54.7%; rat hepatic CYP3A activity, % of the control group activity (rat hepatic CYP3A; [3]): 52.1%; DCCTX production decrease compared with control group (rat hepatic CYP3A; [4]): 52.0%; rat hepatic CYP3A activity, % of the control group activity (rat hepatic CYP3A; [4]): 37.3%; DCCTX production decrease compared with control group (rat hepatic CYP3A; [5]): 40.5%; rat hepatic CYP3A activity, % of the control group activity (rat hepatic CYP3A; [5]): 61.2%; DCCTX production, % of that in control group (CYP3A [1]): 15%; kinact (CYP3A [2]): 1.96 min⁻¹
